# Results taken from patent US11845927B2, “Bioremediation using co-metabolism substrates” (Oregon State University, priority 2018, dated 2023).
# Read-outs that look alike come from different tables or passages of the source.
# Columns and labels:
# [1] = tested on: Rhodococcus rhodochrous 21198; assay: Growth cometabolism batch tests of 21198 on 2-butanol or orthosilicate SRCs; type: cell-based; conditions: for first order rate of 1,4-D transformation / first-order rate of 1,1,1-TCA transformation: 21198 grown in the presence of the orthosilicate; for period over which cometabolic transformation of 1,1,1-TCA and 1,4-D was maintained: single addition of the SRC
# Procedure: Growth on 2-butanol was tracked by the production of CO2, the increase in optical density and the consumption of 2-butanol (FIG. 11).
# Three additions of 1,1,1-TCA and 1,4-D were made to the two biologically active reactors at 0, 21, and 60 days. […] A third addition of 1,1,1-TCA and 1,4-D was made to the active bottles around day 60.
# The same growth cometabolism test performed with T2BOS as an SRC was performed for TBOS (FIGS. 16 and 17).
# Tetraisopropoxysilane (T2POS) is a 2-propanol releasing orthosilicate, similar to TBOS and T2BOS. […] An identical test was performed to those presented for TBOS and T2BOS. The same growth indicators, CO2, O2, and 2-propanol, were tracked throughout the experiment (FIG. 18).
# [2] = Alcohol release from orthosilicates in poisoned control batch reactors; type: physicochemical
# From the text: A slow but gradual rate of O2 consumption was observed, when headspace O2 concentrations are compared to the poisoned controls (FIG. 13). […] T2BOS is not rapidly utilized by 21198 like observed with sBA (FIG. 15), and 2-butanol is released by abiotic hydrolysis. The slow rate of hydrolysis is indicated by the measured 2-butanol concentrations in the poisoned reactor. Over the period of 60 to 125 days approximately 50 μmol of 2-butanol was formed.
# Tetraisopropoxysilane (T2POS) is a 2-propanol releasing orthosilicate, similar to TBOS and T2BOS. […] The smaller 2-propanol therefore would be released from T2POS more rapidly than 2-butanol from T2BOS [6], but slower than TBOS. An identical test was performed to those presented for TBOS and T2BOS. The same growth indicators, CO2, O2, and 2-propanol, were tracked throughout the experiment (FIG. 18).
# [3] = Growth substrates: final OD and % removal of cis-DCE and TCE (Table 1); type: cell-based; conditions: culture grown on the listed substrate
# [4] = tested on: Burkholderia vietnamiensis G4; assay: Resting cell TCE transformation tests with G4; type: cell-based; conditions: G4 grown on the substrate
# From the text: This example concerns COC cometabolism by Burkholderia vietnamiensis G4 (G4).
# [5] = Abiotic hydrolysis of suspended and encapsulated TBOS and T2BOS; type: physicochemical; conditions: for factor of decrease of hydrolysis rate in encapsulated beads compared to solution: similar masses present
# Procedure: This example concerns abiotic hydrolysis experiments. Batch reactors similar to the CoC transformation reactors were used to determine the rate of hydrolysis of TBOS and T2BOS free suspended in solution and encapsulated at different mass loadings in both alginate and gellan gum. These batch kinetic tests were conducted at a constant 20° C. in 155 mL glass Wheaton bottles sealed with reusable screw on caps fitted with gray butyl rubber septa. Reactors were filled with 100 mL of pH-7 carbonate buffered MSM followed by an addition of free suspended or encapsulated SRCs. The total mass of SRC added to each reactor was dependent on various parameters but ranged from 1000-1500 mg/L. All hydrolysis rates observed here were abiotic hydrolysis rates, which was ensured by the addition of 0.2% (w/v) sodium azide as a microbial poison and typically measurements of respiration data (O2/CO2).
# Reactors with TBOS and T2BOS in free suspension at concentrations that replicate encapsulated SRC reactors were created to determine the effect of encapsulation on SRC hydrolysis. Substrate production rates were used as a proxy for SRC hydrolysis, due to the simplicity of substrate analysis. Direct measurements of 1- and 2-butanol in solution were made in order to determine substrate production rates and measurements are presented on a total mass produced basis. Hydrolysis of orthosilicate compounds is acid and base catalyzed and therefore, observed hydrolysis rates are on the low end of what is possible, due to suspension in pH-7 media.
# The concentrations of TBOS and T2BOS in solution effects the rate of hydrolysis, and therefore, concentrations of SRCs in abiotic reactors were created to mimic the concentration of SRCs in biotic co-encapsulated reactors, ˜1000-1500 mg/L. Biotic and abiotic reactors were created in unison and monitored alongside one another, though abiotic data have been separated and are presented below. To prevent contamination from occurring over the long duration of these experiments sodium azide, 0.2% (w/v), was added to all abiotic reactors.
# Due to the ease of encapsulation of SRCs within alginate, initial abiotic hydrolysis work was conducted using alginate encapsulated TBOS. TBOS was encapsulated in abiotic alginate macro-beads at a mass loading of ˜5% and 30% (w/w). These beads were then added to triplicate reactors, such that the final TBOS concentration in pH-7 carbonate buffered media was kept constant at ˜1000 mg/L; i.e., 2 grams of 5% beads and ⅓ grams of 30% beads were added to 100 mL media solution. […] To illustrate the effect of encapsulation on the hydrolysis rate of TBOS, reactors containing similar concentrations of suspended TBOS were created and monitored alongside encapsulated TBOS reactors.
# Total TBOS solution concentrations of ˜1000 mg/Land bead mass loading ˜5 and 30% (w/A). Datapoints are averages between duplicate (suspended) or triplicate (encapsulated) reactors in each treatment and errors bars are 95% confidence intervals. Suspended TBOS reactors were created after encapsulated reactors and therefore, have a shorter total duration of measurements.
# The abiotic hydrolysis rate of both TBOS and T2BOS encapsulated in gellan gum was also investigated. Both SRCs were encapsulated in cylindrical gellan macro-beads at mass loadings of ˜8% (w/w). For this work ATCC 21198 was also co-encapsulated within the gellan gum matrix at initial concentrations of ˜0.5 mgTss/g, and an addition of 0.2% (w/v) sodium azide was added as a cellular poison to ensure cells were not alive within the matrix. Biomass was encapsulated because it had been determined that encapsulated SRCs may hydrolyze more quickly with cells present within the encapsulation matrix. Although, the increase in hydrolysis rate was not proven to be from biotic hydrolysis of SRCs and may have been due to the presence of biomass within the matrix allowing more diffusion of water into and butanol out of beads. […]
# [6] = tested on: short chain alkane monoxygenase (SCAM); assay: Activity-based labeling (ABL) of SCAM after growth on substrates; type: cell-based, Rhodococcus rhodochrous 21198; conditions: 21198 grown on the substrate
# From the text: ABL testing was used to identify alcohol growth substrates that induce SCAM expression and activity and result in co-metabolic transformation of contaminants, such as 1,4-D and CAHs.
# [7] = cited from earlier work
# [8] = cited from earlier work; for Henry's Constant, Hcc: dimensionless
# [9] = tested on: Rhodococcus rhodochrous 21198; assay: Resting cell co-metabolic transformation tests with 21198; type: cell-based; conditions: 21198 grown on isobutane, previous batch experiments
# [10] = abiotic hydrolysis, aqueous alcohol
# [11] = Table 15, summary of abiotic hydrolysis rates
molecule,measurement,setting,value
"CC(C)O[Si](OC(C)C)(OC(C)C)OC(C)C [T2POS, tetraisopropoxysilane]","first order rate of 1,4-D transformation",[1],0.24 day⁻¹
same,"first-order rate of 1,1,1-TCA transformation",[1],0.14 day⁻¹
same,alcohol production rate in poisoned control,[2]; [10],5.1 µmol/day
OCc1ccccc1 [Benzyl alcohol],% REMOVAL TCE,[3],100%
same,TCE transformation by resting cells,[4],rapidly cometabolized
CC=CCO [2-buten-1-ol],% REMOVAL Cis-DCE,[3],67%
same,% REMOVAL TCE,[3],20%
same,FINAL OD(550),[3],.023
"CCCCO[Si](OCCCC)(OCCCC)OCCCC [TBOS, tetrabutyl orthosilicate]","first order rate of 1,4-D transformation",[1],0.76 day⁻¹
same,"first-order rate of 1,1,1-TCA transformation",[1],0.47 day⁻¹
same,"period over which cometabolic transformation of 1,1,1-TCA and 1,4-D was maintained",[1],45 days
same,Estimated Exhaustion of TBOS,[5]; Table 12,0.6 years
same,Butanol Production Rate,"[5]; Table 12, 1-butanol, TBOS ~1000 mg/L, pH-7, 20° C.",5.9 µmol/day
same,Estimated Exhaustion of SRS,[5]; Table 15,0.58 years
same,Butanol Production Rate,[5]; [11],5.91 µmol/day
same,factor of decrease of hydrolysis rate in encapsulated beads compared to solution,[5],10
same,alcohol production rate in poisoned control,[2]; [10],11 µmol/day
2-butanol,SCAM activity / protein banding pattern,[6],observed
"CCC(C)O[Si](OC(C)CC)(OC(C)CC)OC(C)CC (centres unmarked) [T2BOS, tetra-sec-butyl orthosilicate]","first order rate of 1,4-D transformation",[1],0.04 day⁻¹
same,"first-order rate of 1,1,1-TCA transformation",[1],0.037 day⁻¹
same,"period over which cometabolic transformation of 1,1,1-TCA and 1,4-D was maintained",[1],125 days
same,Estimated Exhaustion of T2BOS,[5]; Table 13,12.9 years
same,Butanol Production Rate,"[5]; Table 13, SRC ~1500 mg/L, pH-7",0.40 µmol/day
same,Estimated Exhaustion of TBOS,[5]; Table 14,12.9 years
same,Butanol Production Rate,"[5]; Table 14, SRC 1500 mg/l",0.40 µmol/day
same,Estimated Exhaustion of SRS,[5]; Table 15,12.9 years
same,Butanol Production Rate,[5]; [11],0.40 µmol/day
same,factor of decrease of hydrolysis rate in encapsulated beads compared to solution,[5],10
same,2-butanol production rate in poisoned control,[2]; [10],0.76 µmol/day
same,2-butanol formed in poisoned reactor,"[2]; over the period of 60 to 125 days, T2BOS 1500 mg/L",approximately 50 μmol
same,estimated solubility,[7],6.8 µg/mL
same,estimated solubility,[7]; listed as tetra-sec-butyl orthosilicate,3.8 µg/mL
CCCC(=O)O [Butyrate],% REMOVAL TCE,[3],9%
CCCC(=O)OCc1ccccc1 [benzyl butyrate],TCE transformation by resting cells,[4],rapidly cometabolized
CCO [Ethanol],SCAM activity / protein banding pattern,[6],not induced
C=CC(C)O (centres unmarked) [3-buten-2-ol],FINAL OD(550),[3],0.03
1-butanol,% REMOVAL Cis-DCE,[3],98%
same,% REMOVAL TCE,[3],16%
same,FINAL OD(550),[3],0.24
same,SCAM activity / protein banding pattern,[6],not induced
"CC(Cl)(Cl)Cl [1,1,1-Trichloroethane]","Solubility, Sw",[8],"1,290 mg/L"
same,"Henry's Constant, Hcc",[8],0.548
CC(C)C [Isobutane],VC transformation rate,[9],about 14 μmol/mg TSS/day
same,"Solubility, Sw",[8],48.9 mg/L
same,"Henry's Constant, Hcc",[8],49.2
same,SCAM activity / protein banding pattern,[6],strongest banding pattern
CC(=O)OCc1ccccc1 [benzyl acetate],TCE transformation by resting cells,[4],slower transformation rates
CC(=O)O [Acetate],% REMOVAL Cis-DCE,[3],73%
same,FINAL OD(550),[3],0.33
same,TCE transformation by resting cells,[4],Slow rates
Oc1ccccc1 [Phenol],% REMOVAL TCE,[3],100%
same,TCE transformation by resting cells,[4],slower transformation rates
1-Propanol,% REMOVAL Cis-DCE,[3],44%
same,FINAL OD(550),[3],0.24
same,SCAM activity / protein banding pattern,[6],not induced
"C1COCCO1 [1,4-Dioxane]","Henry's Constant, Hcc",[8],0.000198
O=C(O)c1ccccc1 [Benzoate],% REMOVAL Cis-DCE,[3],84%
same,% REMOVAL TCE,[3],6%
same,FINAL OD(550),[3],0.24
C=CCCO [3-buten-1-ol],% REMOVAL Cis-DCE,[3],89%
same,% REMOVAL TCE,[3],21%
same,FINAL OD(550),[3],.022
CC(C)O [2-propanol],SCAM activity / protein banding pattern,[6],faint banding pattern
CCC(C)OC(C)=O (centres unmarked) [sec-butyl acetate],estimated solubility,[7],3520 µg/mL
"C#C [acetylene, reference compound]","effect on transformation of 1,1,1-TCA and 1,4-D",[1]; acetylene present during growth of 21198 on 2-butanol,blocked
